Reference: ChEMBL document CHEMBL4392835, “New heteroaryl carbamates: Synthesis and biological screening in vitro and in mammalian cells of wild-type and mutant HIV-protease inhibitors” (Bioorg Med Chem, 2019)
Active and inactive are the calls of the source. No cut-off for these calls is given here.

Legend:
[1] = biological target: Protease (Human immunodeficiency virus 1) (UniProt Q9YQ12); assay: Inhibition of GFP-tagged HIV1 protease transfected in HEK293 cells at 10 to 30 uM incubated for 24 hrs by FACS analysis; type: cell-based
Protease (Human immunodeficiency virus 1), sequence (Q9YQ12 as listed by the source): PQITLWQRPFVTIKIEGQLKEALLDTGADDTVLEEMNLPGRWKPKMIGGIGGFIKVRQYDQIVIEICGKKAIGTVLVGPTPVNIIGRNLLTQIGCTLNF

[2] = biological target: Protease (Human immunodeficiency virus 1) (UniProt Q9YQ12); assay: Inhibition of GFP-tagged HIV1 protease transfected in HEK293 cells at 30 uM incubated for 24 hrs by fluorescence microscopy; type: cell-based
[3] = Inhibition of HIV protease assessed as reduction in enzyme-mediated substrate hydrolysis using Abz-Thr-Ile-Nle-Phe(NO2)-Gln-Arg fluorogenic substrate; parameters: species or system Human immunodeficiency virus
[4] = Cytotoxicity in HEK293 cells assessed as reduction in cell viability after 24 hrs by MTT assay; type: cell-based; settings: human
[5] = system: Protease (Human immunodeficiency virus 1), Q9YQ12 [V32I]; assay: Inhibition of GFP-tagged HIV1 protease V32I mutant transfected in HEK293 cells at 10 uM incubated for 24 hrs by fluorescence microscopy; type: cell-based
Protease (Human immunodeficiency virus 1), Q9YQ12 [V32I], sequence (Q9YQ12 entry or part of it V32I): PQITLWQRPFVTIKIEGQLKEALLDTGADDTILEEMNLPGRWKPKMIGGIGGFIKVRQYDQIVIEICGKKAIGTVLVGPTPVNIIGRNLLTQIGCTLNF

[6] = system: Protease (Human immunodeficiency virus 1), Q9YQ12 [V82A]; assay: Inhibition of GFP-tagged HIV1 protease V82A mutant transfected in HEK293 cells at 10 uM incubated for 24 hrs by fluorescence microscopy; type: cell-based
Protease (Human immunodeficiency virus 1), Q9YQ12 [V82A], sequence (Q9YQ12 entry or part of it V82A): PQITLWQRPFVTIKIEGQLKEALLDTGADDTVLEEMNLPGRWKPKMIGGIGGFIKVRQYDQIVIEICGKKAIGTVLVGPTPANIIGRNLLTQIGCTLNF

[7] = biological target: Protease (Human immunodeficiency virus 1) (UniProt Q9YQ12); assay: Inhibition of GFP-tagged HIV1 protease transfected in HEK293 cells at 10 uM incubated for 24 hrs by FACS analysis; type: cell-based
[8] = Cytotoxicity in HEK293 cells assessed as reduction in cell viability by MTT assay; type: cell-based; settings: human
[9] = Intrinsic clearance in human liver microsomes assessed per mg protein; type: ADME, Microsome; settings: read-out: CLH
[10] = Intrinsic clearance in rat liver microsomes assessed per mg protein; type: ADME, Microsome; settings: read-out: CLH
[11] = biological target: Protease (Human immunodeficiency virus 1) (UniProt Q9YQ12); assay: Inhibition of GFP-tagged HIV1 protease transfected in HEK293 cells at 30 uM incubated for 24 hrs by FACS analysis; type: cell-based
[12] = system: Protease (Human immunodeficiency virus 1), Q9YQ12 [V82A]; assay: Inhibition of GFP-tagged HIV1 protease V82A mutant transfected in HEK293 cells at 30 uM incubated for 24 hrs by fluorescence microscopy; type: cell-based
[13] = biological target: Protease (Human immunodeficiency virus 1) (UniProt Q9YQ12); assay: Inhibition of GFP-tagged HIV1 protease transfected in HEK293 cells at 10 uM incubated for 24 hrs by fluorescence microscopy; type: cell-based
[14] = system: Protease (Human immunodeficiency virus 1), Q9YQ12 [V32I]; assay: Inhibition of GFP-tagged HIV1 protease V32I mutant transfected in HEK293 cells at 30 uM incubated for 24 hrs by fluorescence microscopy; type: cell-based

inhibition [1] | inhibition call (active/not active) [2] | IC50 [3] [µM] | SMILES | CC50 at 24 h [4] [µM] | inhibition [5] | inhibition [6] | inhibition [7] | CC50 [8] [µM] | microsomal CLint [9] [µL/min/mg] | microsomal CLint [10] [µL/min/mg] | inhibition [11] | inhibition [12] | inhibition [13] | inhibition [14]
inactive | inactive | 13.4 | COc1ccc(S(=O)(=O)N(CC(C)C)C[C@@H](O)CNC(=O)Oc2ccc3[nH]ccc3c2)cc1 | > 60 |  |  |  |  |  |  |  |  |  | 
inactive | inactive | 0.049 | COc1ccc(S(=O)(=O)N(CC(C)C)C[C@@H](O)CNC(=O)Oc2ccc3sccc3c2)cc1 | > 60 |  |  |  | > 100 |  |  |  |  |  | 
inactive | inactive | 15.4 | COc1ccc(S(=O)(=O)N(CC(C)C)C[C@@H](O)CNC(=O)Oc2ccc3occc3c2)cc1 | > 60 |  |  |  |  |  |  |  |  |  | 
inactive | inactive | 0.0108 | COc1ccc(S(=O)(=O)N(CC(C)C)C[C@@H](O)[C@H](Cc2ccccc2)NC(=O)Oc2ccc3sccc3c2)cc1 | > 60 |  |  |  |  |  |  |  |  |  | 

Continued, molecule first:

SMILES | inhibition [1] | inhibition call (active/not active) [2] | IC50 [3] [µM] | CC50 at 24 h [4] [µM] | inhibition [5] | inhibition [6] | inhibition [7] | CC50 [8] [µM] | microsomal CLint [9] [µL/min/mg] | microsomal CLint [10] [µL/min/mg] | inhibition [11] | inhibition [12] | inhibition [13] | inhibition [14]
COc1ccc(S(=O)(=O)N(CC(C)C)C[C@@H](O)[C@H](Cc2ccccc2)NC(=O)Oc2ccc3[nH]ccc3c2)cc1 | Active | Active | ≤ 0.0006 | > 60 | Active | Active | Active | 2.8 | 548 | 522 |  |  |  | 
CC(C)CN(C[C@@H](O)[C@H](Cc1ccccc1)NC(=O)O[C@H]1CO[C@H]2OCC[C@H]21)S(=O)(=O)c1ccc(N)cc1 | Active | Active |  |  |  |  |  |  |  |  |  |  |  | 
COc1ccc(S(=O)(=O)N(CC(C)C)C[C@@H](O)[C@H](Cc2ccccc2)NC(=O)Oc2ccc3occc3c2)cc1 | Active | Active | ≤ 0.0006 | > 60 |  |  |  | > 100 | 121 | 26.8 | Active | Active | Active | Active
